Assays:
[1] = target: triiodothyronine (T3) nuclear receptor; assay: T3 nuclear receptor binding assay (rat liver nuclei, [125I]-L-T3 displacement); conditions: 0.3 nM [125I]-L-T3, 22° C.
Method: The in vitro binding to T3 nuclear receptors is determined as follows:
Rat liver nuclei and plasma membrane preparations are obtained from Sprague-Dawley (CD) rats (Charles River Labs.) by differential centrifugation as described by Emmelot at al (Methods in Enzymology 31:75, Part A, 1974) with minor modificatons. The nuclear fraction obtained from the 275 ×g pellet is further purified as generally described by Spindler et al (J. Biol. Chem. 250:4118, 1975).
The novel test compounds are assayed for binding to the nuclei by the method of Spindler et al (J. Biol. Chem. 250:4118, 1975). The nuclei are incubated at 22° C. with 0.3 nM of [^125I]-L-triiodothyronine (L-T3). Parallel incubations are conducted with tubes containing, in addition to the nuclei and radioactive L-T3, either various concentrations of the test compounds or 3 μM of nonradioactive L-T3. The latter is used as a measure of nonspecific binding. The radio-activity bound to the nuclei is determined following centrifugation of the reaction mixture at 800×g for 7 minutes and washing of the pellet obtained. The amount of [^125I]-L-T3 specifically bound is determined by subtracting the amount nonspecifically bound (radioactivity contained in the nuclear pellet following incubation with excess (3 μM) non-radioactive L-T3. The concentration of test compound which inhibits the specific binding of [^125I]-L-T3 by 50 percent (IC50) is determined graphically from the reciprocal plot of the specifically bound [^125I]-L-T3 versus the various concentrations of the test compound.

Lp(a) = Lp(a) lowering activity in the normolipemic cynomolgus monkey; type: in vivo, cynomolgus monkey (Macaca fascicularis); conditions: normolipemic cynomolgus monkeys, 4 week treatment, daily oral dose of 75 μg/kg
Method: Cholesterol and Lp(a) lowering activity can be determined in the normolipemic cynomolgus monkey as follows:
Adult male and female cynomolgus monkeys (Macaca fascicularis) weighing 3-7 kg are used. Animals are individually housed and fed a standard monkey chow diet (Purina 5047) supplemented with fresh fruits and vegetables. Each animal serves as its own control and each dosing regime is followed by a wash out period. Test compounds were dissolved in ethanol, imbibed in fruit pulp and administered orally. Animals are dosed once a day with test compounds for a treatment period varying from 8 to 28 days. Blood samples are obtained after an overnight fast at baseline and at the end of the study. […] Plasma samples are divided into aliquots and stored at −70° C. until analyzed. Plasma concentrations of total cholesterol (TC) and triglycerides (TG) are determined by enzymatic methods using commercial kits (Sigma Diagnostics). High-density lipoprotein cholesterol (HDL-C) concentration is measured after precipitation of apoB-containing lipoproteins. Since the fasting plasma of cynomolgus monkeys on a chow diet contains negligible amounts of cholesterol in very low-density lipoprotein, the low-density lipoprotein cholesterol (LDL-C) concentration is calculated by subtracting HDL-C from TC. […] Quantification of Lp(a) is not affected by apo(a) size. […]

serum cholesterol [2] = assay: Cholesterol lowering activity in the rat on a high cholesterol diet; type: in vivo; conditions: daily dose of about 20 μg/kg p.o.
Method: Cholesterol lowering activity is determined in the rat as follows:
Male Sprague-Dawley rats (230-250 g) (Taconic Farms) are maintained ad libitum on water and a high cholesterol diet (1.5% cholesterol and 0.5% cholic acid) for two weeks prior to and during the 7-day treatment period. Groups of animals are treated orally by gavage with the vehicle alone or with test compound for 7 consecutive days. After the last dose, animals are fasted for 18 hours and blood is collected. Blood samples are centrifuged at 2500 rpm for 10 minutes to prepare plasma for total cholesterol determination as well as LDL and HDL cholesterol concentrations. HDL values are determined after […] (Warnick and Albers, 1978). All samples are analyzed enzymatically for cholesterol with a diagnostic reagent kit (Sigma Chemical Co., St. Louis, Mo.). The analysis is performed on a Bio-Mek automated work station. LDL/VLDL fractions are precipitated in the following manner: 0.35 mL of plasma is aliquoted into Eppendorf tubes to which 12 μL of 2M manganese chloride, 11.2 μL of sodium heparin (Porcine Intestinal, 5000 units/mL), and 8.3 μL of normal saline are added. The samples are vortexed and are placed on ice for 15 minutes, then centrifuged at 4° C. for 10 minutes at 1300 rpm and the supernatant is enzymatically analyzed for cholesterol. […]

serum cholesterol [3] = assay: Cholesterol lowering activity in normocholesterolemic dogs; type: in vivo; conditions: dog, daily dose of about 10 μg/kg p.o.
Excerpt: Cholesterol lowering activity can also be evaluated in normocholesterolemic dogs fed regular chow following the procedure described above, by administration of test compound orally for 5 days.

SMILES | IC50 [1] [nM] | Lp(a) levels lowered (Lp(a)) | serum cholesterol lowering (serum cholesterol [2]) | serum cholesterol lowering (serum cholesterol [3])
Cc1cc(NC(=O)C(=O)O)cc(C)c1Oc1ccc(O)c(S(=O)(=O)c2ccc(Cl)cc2)c1 [Example 28] | ~0.13 | – | – | –
Cc1cc(NC(=O)CC(=O)O)cc(C)c1Oc1ccc(O)c(S(=O)(=O)c2ccc(F)cc2)c1 [Example 35, N-{4-[3-(4-Fluorobenzenesulfonyl)-4-hydroxyphenoxy]-3,5-dimethylphenyl}malonamic acid] | ~1 | – | – | –
Cc1cc(NC(=O)C(=O)O)cc(C)c1Oc1ccc(O)c(S(=O)(=O)c2ccc(F)cc2)c1 [Example 26, N-{4-[3-(4-Fluorobenzenesulfonyl)4-hydroxyphenoxy]-3,5-dimethylphenyl}oxamic acid] | ~0.17 | about 40% | significantly lowers serum cholesterol | significantly lowers serum cholesterol
O=C(O)C(=O)Nc1cc(Br)c(Oc2ccc(O)c(S(=O)(=O)c3ccc(F)cc3)c2)c(Br)c1 [Example 39, N-{3,5-Dibromo-4-[3-(4-fluorobenzenesulfonyl)-4-hydroxyphenoxy]phenyl}oxamic acid] | ~0.04 | – | – | –
